In patent US4091006A, “Esters of 3-hydroxyindone compounds” (priority 1975, dated 1978):
Converted amounts (≈) assume the structure as drawn.

Columns and labels:
[1] = test system: eggs of the two-spotted mite; assay: Fumigant toxicity, Method 1 (deposit in pie plate); assay type: in vivo; details: deposit approx. 160 μg per square cm, 4 days
Experimental: (§1) Two methods were used to evaluate fumigant properties:
Method 1: Fifty mg. of each compound were dissolved in 5 ml. of acetone and poured into a 20 cm. (bottom diameter) Pyrex No. 210 pie plate. The acetone was allowed to evaporate leaving a deposit of approximately 160 μg. per square cm. The plate was then placed in the bottom of a 50 pound metal lard container (about 30 cm. in diameter and 34 cm. high). Two excised bean plants, held in a 250 ml. Erlenmeyer flask containing 100 ml. of tap water and infested with eggs of the two-spotted mite, were placed in the center of the pie plate. The container was held in the insectary (temperature 80±5° F., 50±5% R. H.) for four days before mortality determinations were made.

Corn = assay: Phytotoxicity, corn; details: 2500 ppm, 10 days
Experimental: (§5) Experiments were also conducted to determine the phytotoxicity of representative enol ester compositions with respect to healthy fresh plants. […] The test plants were sprayed in accordance with the procedure described above for the Mite Foliage Spray Test so as to deliver approximately 100 milliliters of test solution to the leaves of each plant tested. The sprayed plants and controls were set aside for approximately 1 hour to allow the solutions to dry and were then placed in the greenhouse. After 10 days the plants were visually inspected to determine the extent of foliage injury. A rating of 1 indicates no perceptible injury; 5 indicates the plant was dead and ratings of 2, 3 and 4 indicate intermediate degrees of injury based upon the number and extent to which leaves were injured.

Cotton = assay: Phytotoxicity, cotton; details: 2500 ppm, 10 days
Experimental: as §5

Tomato = assay: Phytotoxicity, tomato; details: 2500 ppm, 10 days
Experimental: as §5

Mite Ova = assay: whole plant or invertebrate
Experimental: The test organism was the egg of the two-spotted mite (Tetranychus urticae (Koch)), as obtained from adults reared on Tendergreen bean plants under controlled conditions of 80±5° F. and 50±5 percent relative humidity. Heavily infested leaves from a stock culture were placed on the primary leaves of two bean plants 6 to 8 inches in height, growing in a 21/2 inch clay pot. Females were allowed to oviposit for a period of 48 hours and then the leaves of the infested plants were dipped in a solution containing 800 parts of tetraethyl pyrophosphate per million parts of water in order to destroy the reproductory forms and thus prevent further egg laying. […] The plants were allowed to dry thoroughly. […] The potted plants (one pot per compound) were placed on a revolving turntable and sprayed with 100-110 milliliters of test compound formulation by use of a DeVilbis spray gun set at 40 psig. air pressure. This application, which lasted 30 seconds, was sufficient to wet the plants to run-off. As a control, 100-110 milliliters of a water solution containing acetone and emulsifier in the same concentrations as the test compound formulation, but containing no test compound, were also sprayed on plants infested with eggs. The sprayed plants were held at 80±5° F. and 50±5 percent relative humidity for 4 days, after which a microscopic examination was made of unhatched (dead) and hatched (living) eggs.
(§2) Side by side comparison tests were conducted to determine the effectiveness of selected enol ester compounds relative to (bis(p-chlorophenyl)trichlorethanol) a miticide sold under the trademark Kelthane and ovex (p-chlorophenyl-p-chlorobenzene sulfonate) two widely used commercial miticides.

[2] = test system: adults and nymphal stages of the two-spotted mite; assay: Mite Foliage Spray Test; assay type: in vivo, Tetranychus urticae (Koch); details: 4 days
From the text: (§3) The test procedures were as follows:
(§4) Compositions were rated on the basis of percent kill with a rating of 1 indicating no mortality; 3 signifying an approximately 50% mortality and 5 indicating 100% mortality at the indicated dosage.

[3] = test system: egg forms of the two-spotted mite; assay: Fumigant toxicity, Method 2 (treated plants near untreated infested plants); assay type: in vivo; details: 500 ppm dip, 4 days
Experimental: as §1
Method 2: Excised bean plants infested with egg forms of the two-spotted mite were dipped in an aqueous preparation (500 ppm) of the test compound. The treated plants were transferred to 250 ml. Erlenmeyer flasks containing 100 ml. of tap water. Four flasks holding treated plants were evenly spaced around a similar flask in which were placed untreated mite-infested plants so that the leaves of the treated foliage were in close proximity (1-3 inches) to the untreated plants. Four days later mortality determinations were made.

[4] = test system: Perennial rye grass, crabgrass, red root pigweed, mustard; assay: Preliminary Herbicide Seed Germination Test; details: rating/maximum 40: 100 and 1000 ppm, four species, each rated 1 (no injury) to 5 (no seedlings emerged), 10-12 days
From the text: The thus-prepared stock suspension contained 0.5 percent by weight of compound. The test concentrations employed in the tests described hereinbelow were obtained by diluting the stock suspension with water. The test procedures were as follows:
The following seeds were used in this test:
Crabgrass -- Digitaria san-
Mustard -- Brassica pincea var.
Each of above mixtures is rolled separately in 5 gallon containers for approximately one-half hour on ball mill to insure uniform mixing of seeds and soil. For each compound four 3-inch pots are filled with soil to within 11/2 inches of top of pots. To 2 of these pots are added 70 cc. of Mixture I. To the remaining 2 pots are added 70 cc. of Mixture II. The seed-soil mixture is tamped firmly, and the pots are removed to the greenhouse and watered lightly. About 2 hours after planting, 25 milliliters of the test formulation were added to each of 2 pots for each soil-seed mixture; i.e., one replicate of each seed mixture per concentration. An equal volume of a water solution containing acetone and an emulsifier in the same concentration as the herbicidal mixture but without the candidate herbicide is also added to each of the soil-seed mixtures. These pots are used as check or control units. The test compounds are formulated by standard procedure of solution in acetone, addition of an emulsifier, and dilution with water. Tests were conducted on all compositions at low concentration (100 ppm.). Certain compositions were also tested at high concentration (1000 ppm). The pots were held in the greenhouse and watered lightly until results were taken. Ten to twelve days after application of chemical, injury is noted for each species by comparing treated vs. untreated pots. Ratings are made at both the high and the low concentrations (1000 ppm and 100 ppm) according to the following designations:
4 = few seedlings emerged and/or very severe stunting
3 = moderate reduction in stand and/or moderate stunting
2 = very slight reduction in stand and/or slight stunting
1 = no injury; seedlings appear no different with respect to stand or growth than untreated controls
Accordingly, the maximum rating for one test seed species tested at both high and low concentration is 10 and the maximum possible total preemergence rating is 40 (10 for each of the four test seed species). […] In some tests the crabgrass experiment was omitted. In these tests the maximum total rating for species tested at both high and low concentrations is 30 and 15 for species tested only at low concentrations.

[5] = test system: egg of the two-spotted mite; assay: Mite Ovicide Test; assay type: in vivo, Tetranychus urticae (Koch); details: spray on eggs, 4 days
From the text: as §3
The plants were allowed to dry thoroughly.
as §4

Bean = assay: Phytotoxicity, bean; details: 2500 ppm, 10 days
Experimental: as §5

Mite Adults = assay: whole plant or invertebrate
Experimental: Adults and nymphal stages of the two-spotted mite (tetranychus urticae (Koch)), reared on Tendergreen bean plants at 80±5° F. and 50±5 percent relative humidity, were the test organisms. Infested leaves from a stock culture were placed on the primary leaves of two bean plants 6 to 8 inches in height, growing in a 21/2 inch clay pot. 150-200 Mites, a sufficient number for testing, transferred from the excised leaves to the fresh plants in a period of 24 hours. Following the 24 hour transfer period, the excised leaves were removed from the infested plants. The test compounds were formulated by diluting the stock suspension with water to provide suspensions containing the desired amount of test compound per million parts of final formulation. The potted plants (one pot per compound) were placed on a revolving turntable and sprayed with 100-110 milliliters of test compound formulation by use of a DeVilbis spray gun set at 40 psi. air pressure. This application, which lasted 30 seconds, was sufficient to wet the plants to run-off. As a control, 100-110 milliliters of a water solution containing acetone and emulsifier in the same concentrations as the test compound formulation, but containing no test compound, were also sprayed on infested plants. The sprayed plants were held at 80±5° F. and 50±5 percent relative humidity for 4 days, after which, a mortality count of motile forms was made. Microscopic examination for motile forms was made on the leaves of the test plants. Any individual which was capable of locomotion upon prodding was considered living.
as §2

two-spotted mite = assay: Small scale field tests, mite control on Tendergreen bean plants; assay type: in vivo, Tetranychus urticae (Koch); details: for Average mite control rating, 3rd Reading: 21 days
Experimental: Selected enol ester compositions were evaluated in small scale field tests to determine whether the excellent miticidal properties observed in greenhouse testing would be obtained under actual conditions of field use.
In Test I 500 ppm aqueous dispersions were prepared as described above. In tests II and III various dilutions of the test compounds ranging from 125 ppm to 1000 ppm were prepared and used. In each case the test dispersions were applied to a minimum of two replicate test plots measuring five feet in length and containing healthy young Tendergreen bean plants which had previously been infested with two-spotted mite (Tetranychus urticae (Koch)). Dispersions of the test compounds at each concentration level were applied to individual replicate plots using 1/2 gallon garden sprayers equipped with spray nozzles to apply approximately 250 ml. of test solution to each replicate. The effectiveness of the treatment was determined at intervals following application, by microscopic examination of five leaves selected at random from each replicate plot. The degree of effectiveness for each leaf was rated on a scale of from 1 to 5 with 1 indicating no control in reference to a standard sprayed with a mixture of solution less test compound and 5 indicating complete control. The results obtained from inspection of sample leaves were then averaged to give a numerical indication of the degree of control for each compound tested at the concentration applied.

[6] = concentration to kill 95 percent

Cc1cc(C)c(C2=C(OC(=O)C(C)(C)C)c3ccccc3C2=O)c(C)c1 [2-(2',4',6'-Trimethylphenyl)-3-(pivaloyloxy)indone]
Fumigant Toxicity Method 1 [1]: 5 (80-100% control)
Phytotoxicity Rating, Corn (Corn): 3
Phytotoxicity Rating, Cotton (Cotton): 3
Phytotoxicity Rating, Tomato (Tomato): 3
LC50 (Mite Ova; Tetranychus urticae, read-out: Mite Ova LD50): 3 µg/mL (≈ 8.61 µM)
Mite Ova LD95 (Mite Ova; [6]): 9 ppm
Mite Adult rating [2]: 5 (100% mortality)
Fumigant Toxicity Method 2 [3]: 5 (80-100% control)
Herbicide (total preemergence rating) [4]: 32/40
Mite Ova rating [5]: 5 (100% mortality)
Phytotoxicity Rating, Bean (Bean): 1
LC50 (Mite Adults; Tetranychus urticae, read-out: Mite Adults LD50): 5 µg/mL (≈ 14.3 µM)
Mite Adults LD95 (Mite Adults; [6]): 170 ppm
Average mite control rating, 1st Reading (two-spotted mite; Test I, 500 ppm, 4 days, scale 1 (no control) to 5 (complete control)): 4.0
Average mite control rating, 2nd Reading (two-spotted mite; Test I, 500 ppm, 8 days, scale 1 to 5): 3.5
Average mite control rating, 1st Reading (two-spotted mite; Test II, 250 ppm, 3 days, scale 1 to 5): 3.0
Average mite control rating, 2nd Reading (two-spotted mite; Test II, 250 ppm, 7 days, scale 1 to 5): 4.0
Average mite control rating, 1st Reading (two-spotted mite; Test II, 500 ppm, 3 days, scale 1 to 5): 2.3
Average mite control rating, 2nd Reading (two-spotted mite; Test II, 500 ppm, 7 days, scale 1 to 5): 4.7
Average mite control rating, 1st Reading (two-spotted mite; Test III, 125 ppm, 3 days, scale 1 to 5): 1.7
Average mite control rating, 2nd Reading (two-spotted mite; Test III, 125 ppm, 7 days, scale 1 to 5): 2.3
Average mite control rating, 3rd Reading (two-spotted mite; Test III, 125 ppm, scale 1 to 5): 1.7
Average mite control rating, 1st Reading (two-spotted mite; Test III, 250 ppm, 3 days, scale 1 to 5): 3.0
Average mite control rating, 2nd Reading (two-spotted mite; Test III, 250 ppm, 7 days, scale 1 to 5): 4.0
Average mite control rating, 3rd Reading (two-spotted mite; Test III, 250 ppm, scale 1 to 5): 3.7
Average mite control rating, 1st Reading (two-spotted mite; Test III, 500 ppm, 3 days, scale 1 to 5): 3.0
Average mite control rating, 2nd Reading (two-spotted mite; Test III, 500 ppm, 7 days, scale 1 to 5): 4.0
Average mite control rating, 3rd Reading (two-spotted mite; Test III, 500 ppm, scale 1 to 5): 4.5
